# Earlier results, collected in patent US20060287500A1, “Method for synthesis of C2-symmetric diamino diol mediated by titanium complexes” (priority 2005, published 2006).
# Key:
# FIV protease = FIV protease (Feline immunodeficiency virus, UniProt P16088); conditions: in vitro
# HIV protease = HIV protease (Human immunodeficiency virus type 1 group M subtype B, UniProt P04585); conditions: in vitro
# [1] = tested on: HIV, SIV, FIV and many of the 150 different clinical mutant strains
# FIV = conditions: feline model
structure (smiles),measurement,setting,value
CC(C)[C@H](NC(=O)[C@H](C)NC(=O)OCc1ccccc1)C(=O)N[C@@H](Cc1ccccc1)[C@@H](O)[C@H](O)[C@H](Cc1ccccc1)NC(=O)[C@@H](NC(=O)[C@H](C)NC(=O)OCc1ccccc1)C(C)C [TL-3],Ki,FIV protease,41 nM
same,Ki,HIV protease,1.5 nM
same,"effectiveness against HIV, SIV, FIV and clinical mutant strains",[1],equally effective
same,drug resistance developing against the inhibitor,FIV,No evidence for drug resistance developing
